This is an account of results in article PMC8839615 (Molecules, 2022).

Data set [1] can be described thus: Pharmacokinetics study in rats after oral administration (plasma, LC-MS/MS). Particulars: for CLZ / VZ / half-life / Cmax: mean ± SD, n = 6; for half-life: po. It is filed as in vivo, Wistar rats. Here is the method: The liquid chromatographic separation process was operated on an XR LC-20AD Prominence^TM UFLC system (Shimadzu, Japan). At a column temperature at 40 °C, substances were analyzed on an Atlantis T3 (2.1 × 150 mm, 3 μm) column. The mobile phase system was water with 0.1% formic acid (A) and methanol with 0.1% formic acid (B). A flow rate of 0.4 mL/min and sample injection volume of 5 μL were used for gradient elution. The gradient elution program was established as follows: 0.01–0.3 min, 5% B; 0.3–0.8 min, 5–50% B; 0.8–1.5 min, 50–70% B; 1.5–2.8 min, 70–85% B; 2.8–5.0 min, 85% B; 5.0–5.01 min, 85–5% B; and 5.01–7.0 min, 5% B.
Mass spectrometry quantitative analysis was conducted on a Q TRAP 4000 MS/MS system to collect data, and then analyst software (version 1.6, AB Sciex, Framingham, MA, USA) was used to handle data. In the MRM mode and taking nitrogen as the circulating gas, electrospray positive ionization (ESI+) was used to analyze four substances. The detailed MS parameters were established as follows: gas 1, 50 psi; gas 2, 40 psi; air curtain gas, 40 psi; ion spray voltage, 5500 V; ion source temperature, 500 °C. Declustering potential (DP), entrance potential (EP), collision energy (CE), and cell exit potential (CXP) were performed as parameters optimized for substances in the MRM mode.
(§1) The plasma and urine samples were kept at indoor temperature and dissolved before analysis. First, 100 µL of sample was added to a 1.5 mL Eppendorf tube together with 10 µL of ISs solution. Then, 300 µL of methanol:acetonitrile (1:1, v/v) was added, vortexed for 3 min, sonicated for 2 min in an ice-water bath, and centrifuged for 8 min at 16,000 rpm to deposit protein. The supernatant was transferred to a 1.5 mL Eppendorf tube, desiccated under airflow at room temperature, re-dissolved in 50 μL methanol, vortexed for 3 min, sonicated for 5 min in an ice-water bath, and centrifuged for 8 min at 16,000 rpm for LC-MS/MS analysis. For tissue and fecal samples, 100 mg of each sample was precisely weighed and added to a 5 mL Eppendorf tube, then mixed with 1 mL normal saline. The tissue cells were destructed by homogenization to mix with normal saline sufficiently, and the homogenization was achieved after centrifugation for 10 min at 4000 rpm. The methods to precipitate the protein of tissue and feces homogenization were the same as those of the plasma samples.
Eighteen male Wistar rats were separated into three groups with six rats in every group based on different oral medicines, containing a β-CD-DM group (inclusion compounds of DM with β-CD), DM group (single DM), and β-CD group (single β-CD). Each rat was administered to orally, and the dosage of every group was computed by the equal transformation of human and rat surface area of the body by the clinical dosage; therefore, 6 mg/kg of the β-CD-DM group (DM:β-CD(6 mg/kg:393 mg/kg) mixed evenly), 6 mg/kg of the DM group, and 393 mg/kg of the β-CD group were obtained. Blood samples (250 μL) were obtained from the orbital venous plexus at 0, 0.083, 0.25, 0.5, 0.75, 1, 1.5, 2, 4, 6, 8, 12, 24, 36 h after oral delivery. Then, the blood was centrifuged for 10 min at 4000 rpm to obtain the separation of plasma, and the plasma was stored in at −80 ℃ before application. The plasma samples of the rats in each group were treated according to the contents of Section 2.4.1, and then analyzed according to Section 2.2.1. The plasma concentrations of β-CD, DM, ginsenoside Re (IS 1), and psoralen (IS 2) were calculated by the ratio of peak area between analytes and internal standards. The pharmacokinetic parameters of the three groups of analytes were handled by adopting pharmacokinetic software DAS 2.1 found on non-compartment analysis. Then, the obtained main pharmacokinetic parameters of every group were used for independent sample T-test with SPSS v24.0; p < 0.05 was considered as a difference, and p < 0.01 was considered as a significant difference.

Data set [2] is described as follows: Tissue distribution study of β-CD in rats. It is filed as in vivo, Wistar rats. How it is done: as §1, with “The methods to precipitate the protein of tissue and feces homogenization were the same as those of the plasma samples.” left out
Eighteen male Wistar rats were separated into three groups with six rats in every group based on different times after administration, containing group A (30 min after oral administration), group B (1h after oral administration), and group C (4 h after oral administration). […] The tissue homogenization samples of the rats in each group were treated according to the contents of Section 2.4.1, and then analyzed according to Section 2.2.1.

The conditions of data set [3]: cited from earlier work.
Setting [4] is: analyte β-CD in rat plasma, β-CD group (single β-CD), 393 mg/kg oral.
Setting [5] is: analyte β-CD in rat plasma, β-CD-DM group (inclusion compounds, DM:β-CD 6 mg/kg:393 mg/kg) oral.
[6] abbreviates: analyte DM in rat plasma, DM group (single DM), 6 mg/kg oral.
Setting [7] is: analyte DM in rat plasma, β-CD-DM group (inclusion compounds, DM:β-CD 6 mg/kg:393 mg/kg) oral.

Where a name gives a salt, the structure may show the parent alone.

On to `OC[C@H]1O[C@@H]2O[C@H]3[C@H](O)[C@@H](O)[C@@H](O[C@H]4[C@H](O)[C@@H](O)[C@@H](O[C@H]5[C@H](O)[C@@H](O)[C@@H](O[C@H]6[C@H](O)[C@@H](O)[C@@H](O[C@H]7[C@H](O)[C@@H](O)[C@@H](O[C@H]8[C@H](O)[C@@H](O)[C@@H](O[C@H]1[C@H](O)[C@H]2O)O[C@@H]8CO)O[C@@H]7CO)O[C@@H]6CO)O[C@@H]5CO)O[C@@H]4CO)O[C@@H]3CO` [β-CD, β-cyclodextrin], for which the CLZ in data set [1] (setting [4]) is 32.7 ± 10.2 L/h/kg; in data set [1] (setting [5]) it was 3.03 × 10^1 ± 6.18 L/h/Kg. Also, the VZ in data set [1] (setting [4]) was found to be 400 ± 176 L/kg; in data set [1] (setting [5]), 354 ± 71.6 L/kg. In addition, the half-life (as a rule, how long it takes for the measured level to halve) in data set [1] (male, Wistar, rat, plasma, 393 mg/kg, analyte β-CD in rat plasma, β-CD group (single β-CD), 393 mg/kg oral) is 500 ± 148 min; in data set [1] (male, Wistar, rat, plasma, 393 mg/kg, analyte β-CD in rat plasma, β-CD-DM group (inclusion compounds, DM:β-CD 6 mg/kg:393 mg/kg) oral) it was 493 ± 88.2 min. Besides, the concentration at 30 min in data set [1] (male, Wistar, rat, plasma, 30 min after oral administration, 393 mg/kg, read-out: concentration of β-CD in rat plasma) is roughly 3500 ng/mL. Further, in data set [1] (male, Wistar, rat, plasma, 1 h after oral administration, 393 mg/kg, tissue concentration similar, read-out: concentration of β-CD in rat plasma), the concentration at 1 h is roughly 3000 ng/mL. Besides, the “AUC0–t as share of AUC0–∞” value in data set [1] (β-CD in rat plasma, oral, sampling to 36 h) was “more than 96%”. In addition, the “time until almost wholly removed from rat plasma” value in data set [1] (β-CD, oral administration) is no more than 36 h. For the same compound, the “time at which concentration in entire tissues reached its peak” value in data set [2] (393 mg/kg single oral, heart, liver, spleen, lung, kidney, sampled 30 min, 1 h, 4 h) was found to be 1 h. Further, the accumulation in tissues result in data set [2] (4 h after 393 mg/kg single oral, tissue concentration decreased significantly) is “without noticeable accumulation”.
As for `COc1ccc2c(c1)[C@]13CCCC[C@@H]1[C@H](C2)N(C)CC3` [DM, Dextromethorphan hydrobromide, reference compound], in data set [1] (setting [6]), the CLZ is listed as 6.55 × 10^1 ± 8.60 L/h/Kg, the Cmax was 2.91 × 10^1 ± 3.17 ng/mL/h and the VZ was 1640 ± 996 L/kg. For the same compound, in data set [1] (setting [7]), the CLZ was 44.1 ± 12.5 L/h/kg, the Cmax was 3.27 × 10^1 ± 4.67 ng/mL/h and the VZ turned out to be 1900 ± 643 L/kg. In addition, in data set [1] (male, Wistar, rat, in vivo, 6 mg/kg, analyte DM in rat plasma, DM group (single DM), 6 mg/kg oral), the half-life was 1010 min. The half-life in data set [1] (male, Wistar, rat, in vivo, 6 mg/kg, analyte DM in rat plasma, β-CD-DM group (inclusion compounds, DM:β-CD 6 mg/kg:393 mg/kg) oral) is 1820 min. The water solubility entry in data set [3] is on record as “poorly water-soluble”.
